This is an account of results in ChEMBL document CHEMBL3098004, “Asymmetric synthesis and receptor activity of chiral simplified resiniferatoxin (sRTX) analogues as transient receptor potential vanilloid 1 (TRPV1) ligands” (Bioorg Med Chem Lett, 2014).

What all share (assay type): cell-based
Experiment [1] has as its target T1, Transient receptor potential cation channel subfamily V member 1 (Homo sapiens, UniProt Q8NER1). As to the kind of experiment: Displacement of [3H]RTX from human TRPV1 expressed in CHO cells after 60 mins by liquid scintillation counting analysis. Background: In a radioligand displacement assay an active substance lowers the binding of a labelled ligand.
The target in experiment [2] is T1, Transient receptor potential cation channel subfamily V member 1. The experiment can be described thus: Antagonist activity at human TRPV1 expressed in CHO cells assessed as inhibition of RTX-induced 45Ca2+ uptake after 20 mins by liquid scintillation counting analysis.
Experiment [3] shares this target. As to the kind of experiment: Agonist activity at human TRPV1 expressed in CHO cells assessed as 45Ca2+ uptake after 20 mins by liquid scintillation counting analysis.

Usually Ki stands for a dissociation constant, usually derived from enzyme kinetics or from competition with a known ligand. Usually EC50 stands for the concentration at which the effect is half-maximal.

T1 sequence (Q8NER1 whole entry): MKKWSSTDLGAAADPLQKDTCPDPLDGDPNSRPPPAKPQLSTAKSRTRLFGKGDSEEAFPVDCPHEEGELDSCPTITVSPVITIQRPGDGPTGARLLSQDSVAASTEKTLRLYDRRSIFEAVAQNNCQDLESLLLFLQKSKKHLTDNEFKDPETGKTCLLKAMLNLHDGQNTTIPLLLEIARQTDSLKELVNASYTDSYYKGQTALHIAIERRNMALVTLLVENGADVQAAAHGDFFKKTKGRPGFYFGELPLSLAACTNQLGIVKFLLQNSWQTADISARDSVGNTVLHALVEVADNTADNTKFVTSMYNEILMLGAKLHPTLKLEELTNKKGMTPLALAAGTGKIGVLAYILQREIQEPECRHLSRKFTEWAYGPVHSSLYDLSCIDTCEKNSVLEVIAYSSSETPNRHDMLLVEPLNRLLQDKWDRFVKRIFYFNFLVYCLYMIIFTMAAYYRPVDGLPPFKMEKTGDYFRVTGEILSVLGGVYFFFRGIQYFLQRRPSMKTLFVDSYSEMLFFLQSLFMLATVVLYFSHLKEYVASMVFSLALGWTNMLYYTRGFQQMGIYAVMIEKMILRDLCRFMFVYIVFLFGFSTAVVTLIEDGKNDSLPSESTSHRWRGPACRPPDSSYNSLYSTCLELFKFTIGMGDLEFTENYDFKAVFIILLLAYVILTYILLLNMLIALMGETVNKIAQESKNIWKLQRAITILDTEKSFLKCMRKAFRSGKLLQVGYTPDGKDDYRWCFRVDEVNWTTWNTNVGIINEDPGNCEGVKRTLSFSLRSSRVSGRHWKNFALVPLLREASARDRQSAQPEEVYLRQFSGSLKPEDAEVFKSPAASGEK

`COc1cc(CNC(=S)NC[C@H](COC(=O)C(C)(C)C)Cc2ccc(C(C)(C)C)cc2)ccc1O`: the Ki in experiment [1] was 3.06 nM; in experiment [2] (cho), “Not Active”. Also, the EC50 in experiment [3] (read-out: EC50) stood at 0.99 nM.

For the compound `COc1cc(CNC(=S)NC[C@@H](COC(=O)C(C)(C)C)Cc2ccc(C(C)(C)C)cc2)ccc1O`, the results for the Ki in experiment [1] and in experiment [2] (cho) were 6.58 nM and “Not Active”, respectively. Moreover, the EC50 in experiment [3] (read-out: EC50) is 9.55 nM.

`CC(C)(C)C(=O)OC[C@@H](CNC(=S)NCc1ccc(NS(C)(=O)=O)c(F)c1)Cc1ccc(C(C)(C)C)cc1`: the Ki was 17.2 nM in experiment [1] and 94 nM in experiment [2] (read-out: Ki). The EC50 result in experiment [3] (cho) is “Not Active”.

Turning to `CC(C)(C)C(=O)OC[C@H](CNC(=S)NCc1ccc(NS(C)(=O)=O)c(F)c1)Cc1ccc(C(C)(C)C)cc1`, the Ki stood at 63 nM in experiment [1] and 161 nM in experiment [2] (read-out: Ki). In addition, the EC50 entry in experiment [3] (cho) is reported as “Not Active”.

Turning to `CC(C)(C)C(=O)OCC(CNC(=S)NCc1ccc(NS(C)(=O)=O)c(F)c1)Cc1ccc(C(C)(C)C)cc1` (racemic), the values for the Ki in experiment [1] and in experiment [2] (read-out: Ki) were 23 nM and 122 nM, respectively. Besides, the EC50 result in experiment [3] (cho) is “Not Active”.

Regarding `COc1cc(CNC(=S)NCC(COC(=O)C(C)(C)C)Cc2ccc(C(C)(C)C)cc2)ccc1O` (racemic), the Ki was 6.1 nM in experiment [1] and “Not Active” in experiment [2] (cho). For the same compound, the half-maximal effective concentration (EC50) in experiment [3] (read-out: EC50) stood at 1.34 nM.

Turning to `C=C(C)[C@]12C[C@@H](C)[C@@]34O[C@](Cc5ccccc5)(O[C@@H]1[C@@H]3C=C(COC(=O)Cc1cc(I)c(O)c(OC)c1)C[C@]1(O)C(=O)C(C)=C[C@@H]41)O2` [IODORESINIFERATOXIN], the EC50 entry in experiment [3] (cho) was “Not Active”.

For the compound `C=C(C)[C@]12C[C@@H](C)[C@@]34O[C@](Cc5ccccc5)(O[C@@H]1[C@@H]3C=C(COC(=O)Cc1ccc(O)c(OC)c1)C[C@]1(O)C(=O)C(C)=C[C@@H]41)O2` [RESINIFERATOXIN], the Ki entry in experiment [2] (cho) is reported as “Not Active”.
